In the NIST ThermoML archive (doi:10.1021/je400184t):
± gives the expanded uncertainty stated by the source.

Assay: excess molar enthalpy (molar enthalpy of mixing); xn = mol fraction of the nth substance listed
Conditions: 298.15 K, 101 kPa, Liquid, Calvet calorimetry

## CN(CCO)CCO [N-methyldiethanolamine] + c1ccncc1
x2 = 0.5606
  excess molar enthalpy: -0.0203 ± 0.000478 kcal/mol
x2 = 0.5629
  excess molar enthalpy: -0.0203 ± 0.000478 kcal/mol
x2 = 0.5652
  excess molar enthalpy: -0.0201 ± 0.000478 kcal/mol
x2 = 0.5675
  excess molar enthalpy: -0.0201 ± 0.000478 kcal/mol
x2 = 0.5698
  excess molar enthalpy: -0.0198 ± 0.000478 kcal/mol
x2 = 0.5721
  excess molar enthalpy: -0.0198 ± 0.000478 kcal/mol
x2 = 0.5744
  excess molar enthalpy: -0.0191 ± 0.000478 kcal/mol
x2 = 0.5767
  excess molar enthalpy: -0.0196 ± 0.000478 kcal/mol
x2 = 0.579
  excess molar enthalpy: -0.0194 ± 0.000478 kcal/mol
x2 = 0.5813
  excess molar enthalpy: -0.0194 ± 0.000478 kcal/mol
x2 = 0.5836
  excess molar enthalpy: -0.0191 ± 0.000478 kcal/mol
x2 = 0.5859
  excess molar enthalpy: -0.0191 ± 0.000478 kcal/mol
x2 = 0.5882
  excess molar enthalpy: -0.0189 ± 0.000478 kcal/mol
x2 = 0.5905
  excess molar enthalpy: -0.0189 ± 0.000478 kcal/mol
x2 = 0.5928
  excess molar enthalpy: -0.0186 ± 0.000478 kcal/mol
x2 = 0.595
  excess molar enthalpy: -0.0186 ± 0.000478 kcal/mol
x2 = 0.5974
  excess molar enthalpy: -0.0184 ± 0.000478 kcal/mol
x2 = 0.5996
  excess molar enthalpy: -0.0182 ± 0.000478 kcal/mol
x2 = 0.6019
  excess molar enthalpy: -0.0182 ± 0.000478 kcal/mol
x2 = 0.6042
  excess molar enthalpy: -0.0179 ± 0.000478 kcal/mol
x2 = 0.6065
  excess molar enthalpy: -0.0179 ± 0.000478 kcal/mol
x2 = 0.6088
  excess molar enthalpy: -0.0177 ± 0.000478 kcal/mol
x2 = 0.6111
  excess molar enthalpy: -0.0177 ± 0.000478 kcal/mol
x2 = 0.6134
  excess molar enthalpy: -0.0174 ± 0.000478 kcal/mol
x2 = 0.6157
  excess molar enthalpy: -0.0174 ± 0.000478 kcal/mol
x2 = 0.618
  excess molar enthalpy: -0.0172 ± 0.000478 kcal/mol
x2 = 0.6203
  excess molar enthalpy: -0.0172 ± 0.000478 kcal/mol
x2 = 0.6226
  excess molar enthalpy: -0.017 ± 0.000478 kcal/mol
x2 = 0.6249
  excess molar enthalpy: -0.0167 ± 0.000478 kcal/mol
x2 = 0.6272
  excess molar enthalpy: -0.0167 ± 0.000478 kcal/mol
x2 = 0.6295
  excess molar enthalpy: -0.0165 ± 0.000478 kcal/mol
x2 = 0.6318
  excess molar enthalpy: -0.0165 ± 0.000478 kcal/mol
x2 = 0.6341
  excess molar enthalpy: -0.0163 ± 0.000478 kcal/mol
x2 = 0.6363
  excess molar enthalpy: -0.0163 ± 0.000478 kcal/mol
x2 = 0.6386
  excess molar enthalpy: -0.016 ± 0.000478 kcal/mol
x2 = 0.6409
  excess molar enthalpy: -0.016 ± 0.000478 kcal/mol
x2 = 0.6432
  excess molar enthalpy: -0.0158 ± 0.000478 kcal/mol
x2 = 0.6455
  excess molar enthalpy: -0.0155 ± 0.000478 kcal/mol
x2 = 0.6478
  excess molar enthalpy: -0.0155 ± 0.000478 kcal/mol
x2 = 0.6501
  excess molar enthalpy: -0.0153 ± 0.000478 kcal/mol
x2 = 0.6524
  excess molar enthalpy: -0.0153 ± 0.000478 kcal/mol
x2 = 0.6547
  excess molar enthalpy: -0.0151 ± 0.000478 kcal/mol
x2 = 0.657
  excess molar enthalpy: -0.0148 ± 0.000478 kcal/mol
x2 = 0.6593
  excess molar enthalpy: -0.0148 ± 0.000478 kcal/mol
x2 = 0.6616
  excess molar enthalpy: -0.0146 ± 0.000478 kcal/mol
x2 = 0.6639
  excess molar enthalpy: -0.0146 ± 0.000478 kcal/mol
x2 = 0.6662
  excess molar enthalpy: -0.0143 ± 0.000478 kcal/mol
x2 = 0.6685
  excess molar enthalpy: -0.0143 ± 0.000478 kcal/mol
x2 = 0.6707
  excess molar enthalpy: -0.0141 ± 0.000478 kcal/mol
x2 = 0.6731
  excess molar enthalpy: -0.0139 ± 0.000478 kcal/mol
x2 = 0.6753
  excess molar enthalpy: -0.0139 ± 0.000478 kcal/mol
x2 = 0.6776
  excess molar enthalpy: -0.0136 ± 0.000478 kcal/mol
x2 = 0.6799
  excess molar enthalpy: -0.0136 ± 0.000478 kcal/mol
x2 = 0.6822
  excess molar enthalpy: -0.0134 ± 0.000478 kcal/mol
x2 = 0.6845
  excess molar enthalpy: -0.0131 ± 0.000478 kcal/mol
x2 = 0.6868
  excess molar enthalpy: -0.0131 ± 0.000478 kcal/mol
x2 = 0.6891
  excess molar enthalpy: -0.0129 ± 0.000478 kcal/mol
x2 = 0.6914
  excess molar enthalpy: -0.0127 ± 0.000478 kcal/mol
x2 = 0.6937
  excess molar enthalpy: -0.0127 ± 0.000478 kcal/mol
x2 = 0.696
  excess molar enthalpy: -0.0124 ± 0.000478 kcal/mol
x2 = 0.6983
  excess molar enthalpy: -0.0124 ± 0.000478 kcal/mol
x2 = 0.7006
  excess molar enthalpy: -0.0122 ± 0.000478 kcal/mol
x2 = 0.7029
  excess molar enthalpy: -0.012 ± 0.000478 kcal/mol
x2 = 0.7052
  excess molar enthalpy: -0.012 ± 0.000478 kcal/mol
x2 = 0.7075
  excess molar enthalpy: -0.0117 ± 0.000478 kcal/mol
x2 = 0.7097
  excess molar enthalpy: -0.0115 ± 0.000478 kcal/mol
x2 = 0.712
  excess molar enthalpy: -0.0115 ± 0.000478 kcal/mol
x2 = 0.7143
  excess molar enthalpy: -0.0112 ± 0.000478 kcal/mol
x2 = 0.7166
  excess molar enthalpy: -0.0112 ± 0.000478 kcal/mol
x2 = 0.7189
  excess molar enthalpy: -0.011 ± 0.000478 kcal/mol
x2 = 0.7212
  excess molar enthalpy: -0.0108 ± 0.000478 kcal/mol
x2 = 0.7235
  excess molar enthalpy: -0.0108 ± 0.000478 kcal/mol
x2 = 0.7258
  excess molar enthalpy: -0.0105 ± 0.000478 kcal/mol
x2 = 0.7281
  excess molar enthalpy: -0.0103 ± 0.000478 kcal/mol
x2 = 0.7304
  excess molar enthalpy: -0.0103 ± 0.000478 kcal/mol
x2 = 0.7327
  excess molar enthalpy: -0.01 ± 0.000478 kcal/mol
x2 = 0.735
  excess molar enthalpy: -0.0098 ± 0.000478 kcal/mol
x2 = 0.7373
  excess molar enthalpy: -0.0098 ± 0.000478 kcal/mol
x2 = 0.7396
  excess molar enthalpy: -0.00956 ± 0.000478 kcal/mol
x2 = 0.7419
  excess molar enthalpy: -0.00956 ± 0.000478 kcal/mol
x2 = 0.7442
  excess molar enthalpy: -0.00932 ± 0.000478 kcal/mol
x2 = 0.7464
  excess molar enthalpy: -0.00908 ± 0.000478 kcal/mol
x2 = 0.7488
  excess molar enthalpy: -0.00908 ± 0.000478 kcal/mol
x2 = 0.751
  excess molar enthalpy: -0.00884 ± 0.000478 kcal/mol
x2 = 0.7533
  excess molar enthalpy: -0.0086 ± 0.000478 kcal/mol
x2 = 0.7556
  excess molar enthalpy: -0.0086 ± 0.000478 kcal/mol
x2 = 0.7579
  excess molar enthalpy: -0.00837 ± 0.000478 kcal/mol
x2 = 0.7602
  excess molar enthalpy: -0.00813 ± 0.000478 kcal/mol
x2 = 0.7625
  excess molar enthalpy: -0.00813 ± 0.000478 kcal/mol
x2 = 0.7648
  excess molar enthalpy: -0.00789 ± 0.000478 kcal/mol
x2 = 0.7671
  excess molar enthalpy: -0.00765 ± 0.000478 kcal/mol
x2 = 0.7694
  excess molar enthalpy: -0.00765 ± 0.000478 kcal/mol
x2 = 0.7717
  excess molar enthalpy: -0.00741 ± 0.000478 kcal/mol
x2 = 0.774
  excess molar enthalpy: -0.00717 ± 0.000478 kcal/mol
x2 = 0.7763
  excess molar enthalpy: -0.00717 ± 0.000478 kcal/mol
x2 = 0.7786
  excess molar enthalpy: -0.00693 ± 0.000478 kcal/mol
x2 = 0.7809
  excess molar enthalpy: -0.00669 ± 0.000478 kcal/mol
x2 = 0.7827
  excess molar enthalpy: -0.00669 ± 0.000478 kcal/mol
x2 = 0.7869
  excess molar enthalpy: -0.00645 ± 0.000478 kcal/mol
x2 = 0.7911
  excess molar enthalpy: -0.00598 ± 0.000478 kcal/mol
x2 = 0.7953
  excess molar enthalpy: -0.00574 ± 0.000478 kcal/mol
x2 = 0.7996
  excess molar enthalpy: -0.0055 ± 0.000478 kcal/mol
x2 = 0.8039
  excess molar enthalpy: -0.00526 ± 0.000478 kcal/mol
x2 = 0.8083
  excess molar enthalpy: -0.00502 ± 0.000478 kcal/mol
x2 = 0.8127
  excess molar enthalpy: -0.00454 ± 0.000478 kcal/mol
x2 = 0.8172
  excess molar enthalpy: -0.0043 ± 0.000478 kcal/mol
x2 = 0.8217
  excess molar enthalpy: -0.00406 ± 0.000478 kcal/mol
x2 = 0.8263
  excess molar enthalpy: -0.00359 ± 0.000478 kcal/mol
x2 = 0.8309
  excess molar enthalpy: -0.00335 ± 0.000478 kcal/mol
x2 = 0.8356
  excess molar enthalpy: -0.00311 ± 0.000478 kcal/mol
x2 = 0.8404
  excess molar enthalpy: -0.00287 ± 0.000478 kcal/mol
x2 = 0.8451
  excess molar enthalpy: -0.00239 ± 0.000478 kcal/mol
x2 = 0.85
  excess molar enthalpy: -0.00215 ± 0.000478 kcal/mol
x2 = 0.8549
  excess molar enthalpy: -0.00191 ± 0.000478 kcal/mol
x2 = 0.8598
  excess molar enthalpy: -0.00167 ± 0.000478 kcal/mol
x2 = 0.8648
  excess molar enthalpy: -0.0012 ± 0.000478 kcal/mol
x2 = 0.8699
  excess molar enthalpy: -0.000956 ± 0.000478 kcal/mol
x2 = 0.875
  excess molar enthalpy: -0.000717 ± 0.000478 kcal/mol
x2 = 0.8802
  excess molar enthalpy: -0.000478 ± 0.000478 kcal/mol
x2 = 0.8855
  excess molar enthalpy: -0.000239 ± 0.000478 kcal/mol
x2 = 0.8908
  excess molar enthalpy: 0 ± 0.000478 kcal/mol
x2 = 0.8962
  excess molar enthalpy: 0.000239 ± 0.000478 kcal/mol
x2 = 0.9016
  excess molar enthalpy: 0.000478 ± 0.000478 kcal/mol
x2 = 0.9071
  excess molar enthalpy: 0.000717 ± 0.000478 kcal/mol
x2 = 0.9127
  excess molar enthalpy: 0.000956 ± 0.000478 kcal/mol
x2 = 0.9183
  excess molar enthalpy: 0.0012 ± 0.000478 kcal/mol
x2 = 0.9241
  excess molar enthalpy: 0.00143 ± 0.000478 kcal/mol
x2 = 0.9298
  excess molar enthalpy: 0.00143 ± 0.000478 kcal/mol
x2 = 0.9357
  excess molar enthalpy: 0.00167 ± 0.000478 kcal/mol
x2 = 0.9416
  excess molar enthalpy: 0.00167 ± 0.000478 kcal/mol
x2 = 0.9477
  excess molar enthalpy: 0.00167 ± 0.000478 kcal/mol
x2 = 0.9538
  excess molar enthalpy: 0.00191 ± 0.000478 kcal/mol
x2 = 0.9599
  excess molar enthalpy: 0.00167 ± 0.000478 kcal/mol
x2 = 0.9662
  excess molar enthalpy: 0.00167 ± 0.000478 kcal/mol
x2 = 0.9725
  excess molar enthalpy: 0.00167 ± 0.000478 kcal/mol
x2 = 0.9789
  excess molar enthalpy: 0.00143 ± 0.000478 kcal/mol
x2 = 0.9854
  excess molar enthalpy: 0.0012 ± 0.000478 kcal/mol
x2 = 0.992
  excess molar enthalpy: 0.000717 ± 0.000478 kcal/mol
x2 = 0.9987
  excess molar enthalpy: 0.000239 ± 0.000478 kcal/mol
